According to patent US10844057B2, “Process for preparing JAK inhibitors and intermediates thereof” (priority 2018, dated 2020):
Where two headings read alike, the source gives them in different places.

How the values were obtained:
JAK2 = JAK2 (Homo sapiens (Human), UniProt O60674); test: Biochemical JAK kinase assay (LanthaScreen), JAK2
Experimental: (§1) Assay 1: Biochemical JAK Kinase Assays
(§2) A panel of four LanthaScreen JAK biochemical assays (JAK1, 2, 3 and Tyk2) were carried in a common kinase reaction buffer (50 mM HEPES, pH 7.5, 0.01% Brij-35, 10 mM MgCl2, and 1 mM EGTA). Recombinant GST-tagged JAK enzymes and a GFP-tagged STAT1 peptide substrate were obtained from Life Technologies.
(§3) Serially diluted compounds were pre-incubated with each of the four JAK enzymes and the substrate in white 384-well microplates (Corning) at ambient temperature for 1 h. ATP was subsequently added to initiate the kinase reactions in 10 μL total volume, with 1% DMSO. […] Kinase reactions were allowed to proceed for 1 hour at ambient temperature before a 10 μL preparation of EDTA (10 mM final concentration) and Tb-anti-pSTAT1 (pTyr701) antibody (Life Technologies, 2 nM final concentration) in TR-FRET dilution buffer (Life Technologies) was added. The plates were allowed to incubate at ambient temperature for 1 h before being read on the EnVision reader (Perkin Elmer). Emission ratio signals (520 nm/495 nm) were recorded and utilized to calculate the percent inhibition values based on DMSO and background controls.
(§4) For dose-response analysis, percent inhibition data were plotted vs. compound concentrations, and IC50 values were determined from a 4-parameter robust fit model with the Prism software (GraphPad Software). Results were expressed as pIC50 (negative logarithm of IC50) and subsequently converted to pKi (negative logarithm of dissociation constant, Ki) using the Cheng-Prusoff equation.

[1] = system: TSLP-evoked TARC release in human peripheral blood mononuclear cells; test: Inhibition of TSLP-evoked TARC release in human peripheral blood mononuclear cells; assay type: cell-based; details: read-out: pIC50 ± st. dev., inhibition of TSLP-evoked TARC release (converted)
Description: Assay 4: Inhibition of TSLP-Evoked TARC Release in Human Peripheral Blood Mononuclear Cells
Thymic stromal lymphopoietin (TSLP) and thymus and activation-regulated chemokine (TARC) are overexpressed in asthmatic airways, and correlate with disease severity. In the lungs, TSLP may be released by bronchial epithelial cells in response to allergens and viral infections. TSLP signals through an IL-7Rα/TSLPR heterodimer found in a broad range of tissues and cell types, including epithelial cells, endothelial cells, neutrophils, macrophages, and mast cells. The binding of TSLP to its receptor induces a conformational change that activates JAK1 and JAK2 to phosphorylate various transcription factors, including STAT3 and STAT5. In immune cells, this triggers a cascade of intracellular events that result in cell proliferation, anti-apoptosis, dendritic cell migration, and production of Th2 cytokines and chemokines. In peripheral blood mononuclear cells (PBMC), TSLP has a proinflammatory effect by activating myeloid dendritic cells to attract and stimulate T cells, a process mediated by the chemoattractant TARC.
The potencies of the test compounds were measured for inhibition of TARC release.
PBMC aliquots (previously isolated from whole blood and frozen in aliquots at −80° C.) from 3 to 5 donors were thawed at 37° C. and added dropwise to 40 mL pre-warmed, sterile-filtered, complete RPMI media in 50 mL Falcon tubes. Cells were pelleted and resuspended in complete media at 2.24×10^6 cells/mL. […] Cells were allowed to rest for 1 hour at 37° C. with 5% CO2.
Compounds were received as 10 mM stock solutions in DMSO. 3.7-fold serial dilutions were performed to generate 9 concentrations of test compound in DMSO at 300× the final assay test concentration. […] 95 μL of 0.2% DMSO in complete media was added to the untreated control wells. Cells were pre-treated with compound for 1 hour at 37° C. with 5% CO2 prior to stimulation.
Immediately prior to use, an aliquot was thawed and prepared at 20× the final assay concentration in complete media. 10 μL of 20×TSLP was added to each well of PBMC, for a final assay concentration of 10 ng/mL. 10 μL of complete media was added to the unstimulated control wells. Cells were stimulated in the presence of compound for 48 hours at 37° C. with 5% CO2.
Following stimulation, the cell culture supernatants were harvested and TARC levels were detected by enzyme-linked immunosorbent assay (ELISA), using Human CCL17/TARC Quantikine ELISA Kit (R&D Systems # DDN00) according to the manufacturer's instructions.
For dose response analysis, the log [test compound (M)] was plotted versus the percent response values for each donor, and IC50 values were determined using a nonlinear regression analysis with GraphPad Prism Software using the 4-parameter sigmoidal dose-response algorithm with variable slope. Data are expressed as mean pIC50 (negative decadic logarithm IC50) values calculated from pIC50 values of individual donors and rounded to one decimal place.

[2] = system: IL-2 stimulated STAT5 phosphorylation in Tall-1 human T cell line; test: Inhibition of IL-2 stimulated pSTAT5 in Tall-1 T cells; assay type: cell-based
Experimental: Assay 2: Inhibition of IL-2 Stimulated pSTAT5 in Tall-1 T Cells
The potency of test compounds for inhibition of interleukin-2 (IL-2) stimulated STAT5 phosphorylation was measured in the Tall-1 human T cell line (DSMZ) using AlphaLisa.
Phosphorylated STAT5 was measured via the AlphaLISA SureFire Ultra pSTAT5 (Tyr694/699) kit (PerkinElmer).
Compounds were serially diluted in DMSO and dispensed acoustically to empty wells. Assay media (phenol red-free DMEM (Life Technologies) supplemented with 10% FBS (ATCC)) was dispensed (4 μL/well) and plates shaken at 900 rpm for 10 mins. Cells were seeded at 45,000 cells/well in assay media (4 μL/well), and incubated at 37° C., 5% CO2 for 1 hour, followed by the addition of IL-2 (R&D Systems; final concentration 300 ng/mL) in pre-warmed assay media (4 μL) for 30 minutes. […] The lysate was shaken at 900 rpm for 10 minutes at room temperature (RT). Phosphorylated STAT5 was measured via the pSTAT5 AlphaLisa kit (PerkinElmer). Freshly prepared acceptor bead mixture was dispensed onto lysate (5 μL) under green filtered <100 lux light. Plates were shaken at 900 rpm for 2 mins, briefly spun down, and incubated for 2 hrs at RT in the dark. Donor beads were dispensed (5 μL) under green filtered <100 lux light. Plates were shaken at 900 rpm for 2 minutes, briefly spun down, and incubated overnight at RT in the dark. Luminescence was measured with excitation at 689 nm and emission at 570 nm using an EnVision plate reader (PerkinElmer) under green filtered <100 lux light.
To determine the inhibitory potency of test compounds in response to IL-2, the average emission intensity of beads bound to pSTAT5 was measured in a human T cell line. IC50 values were determined from analysis of the inhibition curves of signal intensity versus compound concentration. Data are expressed as pIC50 (negative decadic logarithm IC50) values (mean±standard deviation).

Tyk2 = Tyk2 (Homo sapiens (Human), UniProt P29597); test: Biochemical JAK kinase assay (LanthaScreen), Tyk2; details: converted from pIC50 using Cheng-Prusoff; ATP 10 μM
Experimental: as §1, §2, §3, §4

Chain of JAK2 (O60674 whole entry): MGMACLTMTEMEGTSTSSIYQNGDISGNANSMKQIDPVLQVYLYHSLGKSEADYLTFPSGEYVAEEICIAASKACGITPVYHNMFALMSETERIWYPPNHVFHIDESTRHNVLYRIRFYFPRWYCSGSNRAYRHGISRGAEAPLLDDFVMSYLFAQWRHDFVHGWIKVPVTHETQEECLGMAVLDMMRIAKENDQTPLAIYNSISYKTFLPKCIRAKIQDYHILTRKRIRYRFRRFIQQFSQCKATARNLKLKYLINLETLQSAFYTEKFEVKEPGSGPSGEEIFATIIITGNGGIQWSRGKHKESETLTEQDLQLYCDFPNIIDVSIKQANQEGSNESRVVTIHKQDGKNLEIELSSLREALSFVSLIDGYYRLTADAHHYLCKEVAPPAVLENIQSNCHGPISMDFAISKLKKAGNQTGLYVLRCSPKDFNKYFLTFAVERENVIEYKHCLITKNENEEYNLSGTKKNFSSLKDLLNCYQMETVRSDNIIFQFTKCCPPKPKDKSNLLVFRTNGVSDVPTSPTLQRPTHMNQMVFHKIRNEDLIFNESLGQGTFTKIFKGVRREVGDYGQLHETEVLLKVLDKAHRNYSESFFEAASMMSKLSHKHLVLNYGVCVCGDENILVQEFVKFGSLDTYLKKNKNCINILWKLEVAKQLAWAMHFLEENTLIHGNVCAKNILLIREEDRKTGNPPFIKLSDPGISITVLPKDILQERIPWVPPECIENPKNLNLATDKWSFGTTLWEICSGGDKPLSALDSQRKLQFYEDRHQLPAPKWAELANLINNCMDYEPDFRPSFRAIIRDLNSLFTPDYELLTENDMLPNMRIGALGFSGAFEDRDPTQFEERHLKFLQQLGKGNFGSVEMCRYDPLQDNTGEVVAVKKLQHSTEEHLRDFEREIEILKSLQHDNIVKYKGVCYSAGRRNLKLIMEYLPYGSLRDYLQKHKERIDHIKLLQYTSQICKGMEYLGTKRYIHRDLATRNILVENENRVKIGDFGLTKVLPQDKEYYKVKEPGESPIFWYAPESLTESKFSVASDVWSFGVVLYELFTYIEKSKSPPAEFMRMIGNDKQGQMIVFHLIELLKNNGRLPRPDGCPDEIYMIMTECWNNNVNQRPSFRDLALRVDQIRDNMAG
Chain of Tyk2 (P29597 whole entry): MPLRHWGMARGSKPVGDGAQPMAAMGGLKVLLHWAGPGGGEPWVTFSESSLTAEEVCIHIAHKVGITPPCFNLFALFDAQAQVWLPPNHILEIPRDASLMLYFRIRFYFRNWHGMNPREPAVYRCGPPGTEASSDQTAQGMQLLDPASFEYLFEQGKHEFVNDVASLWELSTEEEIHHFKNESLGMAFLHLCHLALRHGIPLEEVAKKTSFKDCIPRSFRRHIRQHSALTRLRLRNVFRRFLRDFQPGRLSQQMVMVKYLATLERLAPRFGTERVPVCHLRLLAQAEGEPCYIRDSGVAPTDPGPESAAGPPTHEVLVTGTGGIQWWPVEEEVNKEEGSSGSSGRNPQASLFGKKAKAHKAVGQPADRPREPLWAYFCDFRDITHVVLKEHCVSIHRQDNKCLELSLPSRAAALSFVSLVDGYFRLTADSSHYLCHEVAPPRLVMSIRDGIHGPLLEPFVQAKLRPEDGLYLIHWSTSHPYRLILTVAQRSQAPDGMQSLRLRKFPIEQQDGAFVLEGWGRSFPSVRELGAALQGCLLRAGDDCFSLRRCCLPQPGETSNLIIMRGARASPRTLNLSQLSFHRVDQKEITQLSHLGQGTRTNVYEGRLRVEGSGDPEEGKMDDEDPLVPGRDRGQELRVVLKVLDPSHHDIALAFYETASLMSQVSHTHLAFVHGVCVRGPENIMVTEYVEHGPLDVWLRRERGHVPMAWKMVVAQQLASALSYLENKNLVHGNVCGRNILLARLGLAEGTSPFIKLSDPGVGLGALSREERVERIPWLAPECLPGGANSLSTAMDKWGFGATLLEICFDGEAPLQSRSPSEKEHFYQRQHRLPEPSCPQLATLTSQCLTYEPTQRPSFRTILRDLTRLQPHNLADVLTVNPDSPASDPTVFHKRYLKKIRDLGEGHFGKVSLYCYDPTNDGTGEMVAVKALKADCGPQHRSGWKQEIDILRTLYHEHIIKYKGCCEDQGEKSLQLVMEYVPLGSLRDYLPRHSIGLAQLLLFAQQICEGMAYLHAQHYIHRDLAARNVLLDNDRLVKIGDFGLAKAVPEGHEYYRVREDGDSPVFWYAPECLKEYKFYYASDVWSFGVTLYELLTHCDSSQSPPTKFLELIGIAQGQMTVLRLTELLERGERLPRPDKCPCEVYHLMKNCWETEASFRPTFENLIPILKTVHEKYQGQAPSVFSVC

Compound | JAK2 pKi (JAK2; converted from pIC50 using Cheng-Prusoff, ATP 3 μM) | IC50 ([1]; human PBMC, 3 to 5 donors, TSLP 10 ng/mL, 48 hours, ELISA) [nM] | IC50 ([2]; IL-2 300 ng/mL, pSTAT5 AlphaLisa, Tall-1 cells, read-out: Tall-1 pIC50 (converted)) [nM] | Tyk2 pKi (Tyk2) | Ki (JAK2) [nM] | IC50 ([1]; Homo sapiens, PBMC, 48 h) [nM] | IC50 ([2]; TALL-1, read-out: Tall-1 pIC50 (converted)) [nM]
CCc1cc(O)ccc1-c1ccc2c(-c3nc4c([nH]3)CN(C(C)C)[C@H](C(=O)N3CC(N(C)C)C3)C4)n[nH]c2c1 [Example 7, (S)-(3-(dimethylamino)azetidin-1-yl)(2-(6-(2-ethyl-4-hydroxyphenyl)-1H-indazol-3-yl)-5-isopropyl-4,5,6,7-tetrahydro-3H-imidazo[4,5-c]pyridin-6-yl)methan One] | 10.5 | 63.1 | 2.51 | 9.1 |  |  | 
CCc1cc(O)ccc1-c1ccc2c(-c3nc4c([nH]3)CN(C)[C@H](C(=O)N3CCN(CCO)C[C@H]3C)C4)n[nH]c2c1 [Example 5, ((S)-2-(6-(2-ethyl-4-hydroxyphenyl)-1H-indazol-3-yl)-5-methyl-4,5,6,7-tetrahydro-3H-imidazo[4,5-c]pyridin-6-yl)((R)-4-(2-hydroxyethyl)-2-methylpiperazin-1-yl)methanone] |  |  |  |  | 0.0316 | 31.6 | 1.58
